Reference: BindingDB's records for doi:10.1021/jm0408316 (University of Genoa, 2005)
Structures can show the parent of a compound that is named as a salt.

Molecular target: not listed separately
Assay: Inhibition of benzylamine binding to Benzylamine oxidase of porcine serum

| SMILES | IC50 |
| --- | --- |
| NCc1ccncc1NC1CCCC1 [4-(aminomethyl)-N-cyclopentylpyridin-3-amine dihydrochloride] | 16 µM |
| NCc1ccncc1N [4-(aminomethyl)pyridin-3-amine dihydrochloride] | 16 µM |
| NCc1c(OCCCCO)cncc1OCCCCO [4-{[4-(aminomethyl)-5-(4-hydroxybutoxy)pyridin-3-yl]oxy}butan-1-ol dihydrochloride] | 0.15 µM |
| NCc1ccncc1NC1CC1 [4-(aminomethyl)-N-cyclopropylpyridin-3-amine dihydrochloride hydrate] | > 100 µM |
| NCc1ccncc1NC1CCCCCC1 [4-(aminomethyl)-N-cycloheptylpyridin-3-amine dihydrochloride hydrate] | 79 µM |
| CC(C)Nc1cncc(N(C)C(C)C)c1CN [4-(aminomethyl)-N-isopropyl-5-[isopropyl(methyl)-lambda~5~-azanyl]pyridin-3-amine dihydrochloride] | > 0.1 µM |
| CNc1cnccc1CN [4-(aminomethyl)-N-methylpyridin-3-amine dihydrochloride] | 8 µM |
| NCc1ccncc1N(C1CCCC1)C1CCCC1 [4-(aminomethyl)-N,N-dicyclopentylpyridin-3-amine dihydrochloride] | 100 µM |
| CNc1ccccc1CN [N-[2-(aminomethyl)phenyl]-N-methylamine dihydrochloride] | > 100 µM |
| CCCNc1cncc(N(C)CCC)c1CN [4-(aminomethyl)-5-[methyl(propyl)-lambda~5~-azanyl]-N-propylpyridin-3-amine dihydrochloride] | 350 µM |
| CC(C)Nc1cnccc1CN [4-(aminomethyl)-N-isopropylpyridin-3-amine dihydrochloride] | 100 µM |

Continued, values first:

| IC50 | SMILES |
| --- | --- |
| 5 µM | CCOc1cncc(OCc2ccccc2)c1CN [[3-(benzyloxy)-5-ethoxypyridin-4-yl]methylamine dihydrochloride] |
| 0.13 µM | CCSc1cncc(SCC)c1CN |
| 0.17 µM | CCOc1cncc(OCC)c1CN [(3,5-diethoxypyridin-4-yl)methylamine dihydrochloride] |
| 1.6 µM | CC(C)(C)Sc1cncc(SC(C)(C)C)c1CN |
| 3.2 µM | NCc1c(OCCO)cncc1OCCO [2-{[4-(aminomethyl)-5-(2-hydroxyethoxy)pyridin-3-yl]oxy}ethanol dihydrochloride trihydrate] |
| 1.7 µM | CNc1cncc(NC)c1CN [4-(aminomethyl)-N-methyl-5-(methyl-lambda~5~-azanyl)pyridin-3-amine dihydrochloride] |
| 5.6 µM | NCc1ccncc1NCC1CCCCC1 [4-(aminomethyl)-N-(cyclohexylmethyl)pyridin-3-amine dihydrochloride hydrate] |
| 2 µM | CCNc1cnccc1CN [4-(aminomethyl)-N-ethylpyridin-3-amine dihydrochloride] |
| 0.02 µM | CCNc1cncc(N(C)CC)c1CN [4-(aminomethyl)-N-ethyl-5-[ethyl(methyl)-lambda~5~-azanyl]pyridin-3-amine dihydrochloride] |
| 0.44 µM | CNc1cncc(N(C)C)c1CN [4-(aminomethyl)-5-(dimethyl-lambda~5~-azanyl)-N-methylpyridin-3-amine dihydrochloride dihydrate] |

Molecular target: Diamine oxidase (Sus scrofa)
Assay: Inhibition of putrescine binding to against Diamine oxidase of porcine kidney

| IC50 | SMILES |
| --- | --- |
| > 1000 µM | CC(C)(C)Sc1cncc(SC(C)(C)C)c1CN |
| 0.12 µM | CNc1cncc(NC)c1CN [4-(aminomethyl)-N-methyl-5-(methyl-lambda~5~-azanyl)pyridin-3-amine dihydrochloride] |
| 1 µM | CC(C)Nc1cncc(N(C)C(C)C)c1CN [4-(aminomethyl)-N-isopropyl-5-[isopropyl(methyl)-lambda~5~-azanyl]pyridin-3-amine dihydrochloride] |
| 0.061 µM | CNc1cncc(N(C)C)c1CN [4-(aminomethyl)-5-(dimethyl-lambda~5~-azanyl)-N-methylpyridin-3-amine dihydrochloride dihydrate] |
